Each compound was assayed against GST-tagged-Wee1 kinase (Homo sapiens, UniProt P30291) (assay: Wee1 time-resolved fluorescence equilibrium binding assay (displacement of Oregon Green-labeled ATP-competitive kinase probe)). Conditions: not given.
Procedure: Wee1 kinase was assayed using a time-resolved fluorescence equilibrium binding assay monitoring displacement of a rapidly reversible Oregon Green-labeled ATP-competitive kinase probe (N-(2-(2-(2-(4-(4-(5-chloro-4-(2-(1-hydroxycyclobutyl)thiazol-5-yl)-1H-pyrrolo[2,3-b]pyridin-2-yl)phenyl)piperazin-1-yl)ethoxy)ethoxy)ethyl)-2′,7′-difluoro-3′,6′-dihydroxy-3-oxo-3H-spiro[isobenzofuran-1,9′-xanthene]-5-carboxamide) by competitive Wee1 inhibitors.

Sequence of GST-tagged-Wee1 kinase (P30291 whole entry): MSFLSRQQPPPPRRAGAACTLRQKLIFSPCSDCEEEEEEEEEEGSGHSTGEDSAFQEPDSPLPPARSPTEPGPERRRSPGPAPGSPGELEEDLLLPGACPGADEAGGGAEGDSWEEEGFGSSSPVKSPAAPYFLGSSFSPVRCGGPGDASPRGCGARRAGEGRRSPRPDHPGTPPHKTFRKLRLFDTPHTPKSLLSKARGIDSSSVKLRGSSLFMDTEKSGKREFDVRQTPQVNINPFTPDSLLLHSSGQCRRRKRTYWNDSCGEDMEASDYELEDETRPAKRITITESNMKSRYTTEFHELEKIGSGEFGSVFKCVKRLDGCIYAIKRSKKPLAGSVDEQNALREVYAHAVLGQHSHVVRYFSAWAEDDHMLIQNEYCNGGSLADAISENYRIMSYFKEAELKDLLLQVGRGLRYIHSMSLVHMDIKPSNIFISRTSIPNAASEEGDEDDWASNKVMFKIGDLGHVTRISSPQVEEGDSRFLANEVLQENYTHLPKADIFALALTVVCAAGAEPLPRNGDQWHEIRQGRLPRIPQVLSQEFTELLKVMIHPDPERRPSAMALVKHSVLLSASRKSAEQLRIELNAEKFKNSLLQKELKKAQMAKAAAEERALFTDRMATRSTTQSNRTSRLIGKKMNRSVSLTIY

| Compound | Ki [nM] |
| --- | --- |
| CN1CCN(c2ccc(Nc3ncc4c(=O)n(-c5ccccc5F)nc(C5CC(F)(F)C5)c4n3)cc2)CC1 [Example 198, 8-(3,3-difluorocyclobutyl)-6-(2-fluorophenyl)-2-{[4-(4-methylpiperazin-1-yl)phenyl]amino}pyrimido[4,5-d]pyridazin-5(6H)-one] | 25 |
| CN1Cc2cc(Nc3ncc4c(=O)n(-c5c(Cl)cncc5Cl)nc(-c5cn(C)cn5)c4n3)ccc2C2(CC2)C1 [Example 359, 6-(3,5-dichloropyridin-4-yl)-2-[(2′-methyl-2′,3′-dihydro-1′H-spiro[cyclopropane-1,4′-isoquinolin]-7′-yl)amino]-8-(1-methyl-1H-imidazol-4-yl)pyrimido[4,5-d]pyridazin-5(6H)-one] | 5 |
| O=c1c2cnc(Nc3ccc4c(c3)CNCC43CC3)nc2c(C(F)F)nn1-c1c(Cl)cccc1Cl [Example 407, 6-(2,6-dichlorophenyl)-8-(difluoromethyl)-2-(2′,3′-dihydro-1′H-spiro[cyclopropane-1,4′-isoquinolin]-7′-ylamino)pyrimido[4,5-d]pyridazin-5(6H)-one] | 0.21 |
| CN1CCN(c2ccc(Nc3ncc4c(=O)n(-c5ccccc5)nc(-c5cnn(C)c5)c4n3)cc2)CC1 [Example 85, 2-{[4-(4-methylpiperazin-1-yl)phenyl]amino}-8-(1-methyl-1H-pyrazol-4-yl)-6-phenylpyrimido[4,5-d]pyridazin-5(6H)-one] | 24.7 |
| CN1CCN(c2ccc(Nc3ncc4c(=O)n(-c5c(Cl)cccc5Cl)nc(-c5ccncc5)c4n3)cc2)CC1 [Example 156, 6-(2,6-dichlorophenyl)-2-{[4-(4-methylpiperazin-1-yl)phenyl]amino}-8-(pyridin-4-yl)pyrimido[4,5-d]pyridazin-5(6H)-one] | 0.03 |
| CCc1nn(-c2c(Cl)cccc2Cl)c(=O)c2cnc(Nc3ccc4c(c3)CNCC43CC3)nc12 [Example 404, 6-(2,6-dichlorophenyl)-2-(2′,3′-dihydro-1′H-spiro[cyclopropane-1,4′-isoquinolin]-7′-ylamino)-8-ethylpyrimido[4,5-d]pyridazin-5(6H)-one] | 0.25 |
| Cc1cc(Nc2ncc3c(=O)n(-c4c(F)cccc4Cl)nc(C)c3n2)ccc1N1CCCN(C)CC1 [Example 368, 6-(2-chloro-6-fluorophenyl)-8-methyl-2-(3-methyl-4-(4-methyl-1,4-diazepan-1-yl)phenylamino)pyrimido[4,5-d]pyridazin-5(6H)-one] | 0.54 |
| O=c1c2cnc(Nc3ccc4c(c3)CNCC43CC3)nc2c(-c2ccncc2)nn1-c1ccncc1Cl [Example 383, 6-(3-chloropyridin-4-yl)-2-(2′,3′-dihydro-1′H-spiro[cyclopropane-1,4′-isoquinolin]-7′-ylamino)-8-(pyridin-4-yl)pyrimido[4,5-d]pyridazin-5(6H)-one] | 1.1 |
| Cn1cnc(-c2nn(-c3ncccc3Cl)c(=O)c3cnc(Nc4ccc5c(c4)CNCC5)nc23)c1 [Example 353, 6-(3-chloropyridin-2-yl)-8-(1-methyl-1H-imidazol-4-yl)-2-(1,2,3,4-tetrahydroisoquinolin-7-ylamino)pyrimido[4,5-d]pyridazin-5(6H)-one] | 16 |
| CN1CCN(c2ccc(Nc3ncc4c(=O)n(-c5c(Cl)cccc5Cl)nc(-c5cccc(Br)c5)c4n3)cc2)CC1 [Example 72, 8-(3-bromophenyl)-6-(2,6-dichlorophenyl)-2-{[4-(4-methylpiperazin-1-yl)phenyl]amino}pyrimido[4,5-d]pyridazin-5(6H)-one] | 0.5 |
| CN1CCN(c2ccc(Nc3ncc4c(=O)n(-c5ccccc5Cl)nc(-c5ccccn5)c4n3)cc2)CC1 [Example 60, 6-(2-chlorophenyl)-2-{[4-(4-methylpiperazin-1-yl)phenyl]amino}-8-(pyridin-2-yl)pyrimido[4,5-d]pyridazin-5(6H)-one] | 1 |
| C=CCn1nc(-c2ccccc2)c2nc(Nc3ccc4c(c3)CN(C)CC43CC3)ncc2c1=O [Example 172, 6-allyl-2-[(2′-methyl-2′,3′-dihydro-1′H-spiro[cyclopropane-1,4′-isoquinolin]-7′-yl)amino]-8-phenylpyrimido[4,5-d]pyridazin-5(6H)-one] | 2.5 |
| CN1CCN(c2ccc(Nc3ncc4c(=O)n(-c5c(Cl)cccc5Cl)nc(C5CCCNC5)c4n3)cc2)CC1 (stereo not shown) [Example 105, 6-(2,6-dichlorophenyl)-2-{[4-(4-methylpiperazin-1-yl)phenyl]amino}-8-(piperidin-3-yl)pyrimido[4,5-d]pyridazin-5(6H)-one] | 4 |
| O=c1c2cnc(Nc3ccc4c(c3)CNCC43CC3)nc2c(C(F)(F)F)nn1-c1c(Cl)cccc1Cl [Example 420, 6-(2,6-dichlorophenyl)-2-(2′,3′-dihydro-1′H-spiro[cyclopropane-1,4′-isoquinolin]-7′-ylamino)-8-(trifluoromethyl)pyrimido[4,5-d]pyridazin-5(6H)-one] | 0.45 |
| CN1CCN(c2ccc(Nc3ncc4c(=O)n(-c5cccc(F)c5)nc(C5CC(F)(F)C5)c4n3)cc2)CC1 [Example 199, 8-(3,3-difluorocyclobutyl)-6-(3-fluorophenyl)-2-{[4-(4-methylpiperazin-1-yl)phenyl]amino}pyrimido[4,5-d]pyridazin-5(6H)-one] | 82 |
| O=c1c2cnc(Nc3ccc4c(c3)CNCC43CC3)nc2c(C2CC2)nn1-c1c(Cl)cccc1Cl [Example 391, 8-cyclopropyl-6-(2,6-dichlorophenyl)-2-(2′,3′-dihydro-1′H-spiro[cyclopropane-1,4′-isoquinolin]-7′-ylamino)pyrimido[4,5-d]pyridazin-5(6H)-one] | 0.93 |
| Cc1nn(-c2c(Cl)cncc2Cl)c(=O)c2cnc(Nc3ccc4c(c3)CCNC4)nc12 [Example 448, 6-(3,5-dichloropyridin-4-yl)-8-methyl-2-(1,2,3,4-tetrahydroisoquinolin-6-ylamino)pyrimido[4,5-d]pyridazin-5(6H)-one] | 0.5 |
| Cc1nn(-c2c(Cl)cccc2Cl)c(=O)c2cnc(Nc3cccc(C(=O)N4CCN(C)CC4)c3)nc12 [Example 528, 6-(2,6-dichlorophenyl)-8-methyl-2-({3-[(4-methylpiperazin-1-yl)carbonyl]phenyl}amino)pyrimido[4,5-d]pyridazin-5(6H)-one] | 2.4 |
| Cc1nn(-c2c(Cl)cccc2Cl)c(=O)c2cnc(Nc3ccc(NC4CCNCC4)cc3)nc12 [Example 525, 6-(2,6-dichlorophenyl)-8-methyl-2-{[4-(piperidin-4-ylamino)phenyl]amino}pyrimido[4,5-d]pyridazin-5(6H)-one] | 0.2 |
| COCc1nn(-c2c(Cl)cccc2Cl)c(=O)c2cnc(Nc3ccc4c(c3)CN(C)CC43CC3)nc12 [Example 429, 6-(2,6-dichlorophenyl)-8-(methoxymethyl)-2-[(2′-methyl-2′,3′-dihydro-1′H-spiro[cyclopropane-1,4′-isoquinolin]-7′-yl)amino]pyrimido[4,5-d]pyridazin-5(6H)-one] | 0.48 |
| CN1CCN(c2ccc(Nc3ncc4c(=O)n(-c5c(Cl)cccc5Cl)nc(C5CC5)c4n3)cc2)CC1 [Example 386, 8-cyclopropyl-6-(2,6-dichlorophenyl)-2-{[4-(4-methylpiperazin-1-yl)phenyl]amino}pyrimido[4,5-d]pyridazin-5(6H)-one] | 0.48 |

Same assay, conditions: read-out: Wee-1 inhibition Ki

| Compound | Ki [nM] |
| --- | --- |
| 6-(2-chlorophenyl)-8-(2-furyl)-2-{[4-(4-methylpiperazin-1-yl)phenyl]amino}pyrimido[4,5-d]pyridazin-5(6H)-one [Example 33] | 0.3 |

From patent US8796289B2 (AbbVie Inc., priority 2011, dated 2014)
